Read-outs that look alike come from different tables or passages of the source.
What was measured:
[1] = tested on: BBB permeability; experiment: Example 2: mifepristone pellet in rats, brain haloperidol and clozapine levels and brain dopamine metabolites; assay type: in vivo
Description: Rats (male Sprague Dawley 175-200 grams) are maintained, 3 rats per cage, under controlled temperature and lighting (12 hours light/12 hours dark) with food and water ad libitum. […] Two hours prior to sacrifice the animals are injected with either haloperidol (1 mg/kg s.c; RBI Natick, Mass.) or an equivalent volume of vehicle (0.3% tartaric acid, pH 5.3) or with either clozapine (15 mg/kg s.c.; RBI, Natick, Mass.) or vehicle (0.9% saline plus 0.8% acetic acid). Animal sacrifice is by decapitation during the first four hours of the light cycle. Blood is collected and brains removed and frozen on dry ice for storage at −80° C. Frozen brains are sliced into 250 μm sections with a cryostat. The medial prefrontal cortex (AP 13.7 to 12.2 mm) is dissected with a scalpel, the striatum (AP 10.7 to 9.7 mm) is removed with stainless steel cannulae from frozen slices and the core and shell of the nucleus accumbens (AP 10.7 to 9.7 mm) is removed. Brain regions are dissected within 24-72 hours of slicing. […] Dopamine metabolites homovanillic acid (HVA) and dihydroxyphenylacetic acid (DOPAC) are measured in the brains of the experimental animals. […] Tissue pellets are dissolved in 1.0 N NaOH for protein determination (BioRad, Richmond, Calif.). Cortical supernatants are filtered through a 0.45 μm filter and 5-80 μl of supernatant is injected directly onto a C18 reverse phase analytical column (5 μm, 250×4.6 mm; Biophase ODS, BAS, West Lafayette, Ind.) protected by a precolumn cartridge (5 μm, 30×4.6 mm, BAS) as described with modification (Lindley et al. Proc. Soc. Exp. Biol. Med. 188:282-286 (1988)). DOPAC and HVA were detected using an electrochemical detector. For cortical regions, the conditioning electrode is set at +0.35 V and the dual analytical electrode is set at +0.02 V and −0.35 V, respectively (ESA, Bedford, Mass.). For other regions a single analytical electrode set at +0.72 V is used (BAS, West Lafayette, Ind.). Brain clozapine levels are analyzed by National Medical Services, Inc. (Willow Grove, PN) while brain and plasma haloperidol and reduced haloperidol and plasma clozapine levels are analyzed by Analytical Psychopharmacology Laboratories (Nathan Kline Institute, Orangeburg, N.Y.), both by gas chromatography.

[2] = tested on: BBB permeability; settings: adrenalectomized rats with vehicle (placebo) pellets; haloperidol 1 mg/kg s.c. or clozapine 15 mg/kg s.c., 2 h before sacrifice
[3] = tested on: BBB permeability; experiment: Example 6: mifepristone s.c. injection in rats, delivery of adriamycin to brain; assay type: in vivo; settings: mifepristone 2 mg s.c. 4 h before sacrifice, adriamycin 0.5 mg i.v. 2 h before sacrifice
Description: Animal sacrifice is by decapitation during the first four hours of the light cycle. Blood is collected and brains removed and frozen on dry ice for storage at −80° C. Adriamycin concentration is measured in the brains of the experimental animals.

[4] = tested on: BBB permeability; experiment: Example 5: mifepristone pellet in rats, delivery of methotrexate to brain; assay type: in vivo; settings: mifepristone 200 mg 10 day sustained-release pellet, methotrexate 0.5 mg i.v. 2 h before sacrifice
Description: Rats (male Sprague Dawley 175-200 grams) are maintained, 3 rats per cage, under controlled temperature and lighting (12 hours light/12 hours dark) with food and water ad libitum. […] Two hours prior to sacrifice the animals are injected with either methotrexate (0.5 mg i.v; Sigma Chemical Co., (800)325-3010) or an equivalent volume of vehicle (saline, pH 9). Animal sacrifice is by decapitation during the first four hours of the light cycle. Blood is collected and brains removed and frozen on dry ice for storage at −80° C. Methotrexate concentration is measured in the brains of the experimental animals. The methotrexate concentration is greater in the brains of mifepristone-treated animals than in placebo-treated animals.

[5] = tested on: BBB permeability; experiment: Example 4: mifepristone pellet in rats, delivery of ampicillin to brain; assay type: in vivo; settings: mifepristone 200 mg 10-day sustained release pellet, ampicillin 1.5 mg i.v. 2 h before sacrifice
Description: Animal sacrifice is by decapitation during the first four hours of the light cycle. Blood is collected and brains removed and frozen on dry ice for storage at −80° C. Ampicillin concentration is measured in the brains of the experimental animals.

[6] = tested on: BBB permeability; experiment: Example 3: mifepristone pellet in rats, delivery of Amphotericin B to brain; assay type: in vivo; settings: mifepristone 200 mg 10-day sustained release pellet, Amphotericin B 0.1 mg i.v. 2 h before sacrifice
Description: Rats (male Sprague Dawley 175-200 grams) are maintained, 3 rats per cage, under controlled temperature and lighting (12 hours light/12 hours dark) with food and water ad libitum. […] Two hours prior to sacrifice the animals are injected with either Amphotericin B (0.1 mg i.v.; Sigma Chemical Co., (800) 325-3010) or an equivalent volume of vehicle (0.1% DMSO in saline, pH 11). Animal sacrifice is by decapitation during the first four hours of the light cycle. Blood is collected and brains removed and frozen on dry ice for storage at −80° C. Amphotericin B concentration is measured in the brains of the experimental animals. The Amphotericin B concentration is greater in the brains of mifepristone-treated animals than in placebo-treated animals.

[7] = rats, mifepristone 200 mg 10-day sustained-release pellet, clozapine 15 mg/kg s.c.
[8] = rats, mifepristone 200 mg 10-day sustained-release pellet, haloperidol 1 mg/kg s.c.

| Structure (SMILES) | measured levels of HVA and DOPAC in the brain ([1]; rats with placebo pellet, haloperidol 1 mg/kg s.c. or clozapine 15 mg/kg s.c., 2 h before sacrifice) | measured levels of HVA and DOPAC in the brain [2] | brain concentration of clozapine, mifepristone-treated vs placebo [1, 7] | increase in dopamine metabolite levels following clozapine treatment, mifepristone-treated vs placebo [1, 7] | brain concentration of haloperidol, mifepristone-treated vs placebo [1, 8] | increase in dopamine metabolite levels following haloperidol treatment, mifepristone-treated vs placebo [1, 8] | adriamycin concentration in the brain, mifepristone-treated vs placebo [3] | methotrexate concentration in the brain, mifepristone-treated vs placebo [4] | ampicillin concentration in the brain, mifepristone-treated vs placebo [5] | Amphotericin B concentration in the brain, mifepristone-treated vs placebo [6] |
| --- | --- | --- | --- | --- | --- | --- | --- | --- | --- | --- |
| O=C(CCCN1CCC(O)(c2ccc(Cl)cc2)CC1)c1ccc(F)cc1 [haloperidol] | elevated | elevated | – | – | – | – | – | – | – | – |
| CC#C[C@]1(O)CC[C@H]2[C@@H]3CCC4=CC(=O)CCC4=C3[C@@H](c3ccc(N(C)C)cc3)C[C@@]21C [mifepristone, (11β,17β)-11-[4-(dimethylamino)phenyl]-17-hydroxy-17-(1-propynyl)estra-4,9-dien-3-one] | – | – | greater | greater | greater | greater | greater | greater | greater | greater |
